According to paper PMC9791135, “A penetratin-derived peptide reduces the membrane permeabilization and cell toxicity of α-synuclein oligomers” (The Journal of Biological Chemistry, 2022):
Where a SMILES comes first, the peptide text is derived from it.

How the values were obtained:
[1] = molecular target: T1, α-syn (Homo sapiens, UniProt P37840); assay: SDS-PAGE of soluble α-syn left in supernatant after fibrillation; assay type: biochemical; details: for Amount of soluble α-syn monomer left in the supernatant, in words: SDS-PAGE after centrifugation of fibrillated samples; for Soluble α-syn left in supernatant (SDS-PAGE gel): after end of incubation, centrifuged 13,000 rpm 15 min, versus α-syn alone
T1 construct: made in house; host or cells: Escherichia coli BL21 (DE3), plasmid pET11-D
Protocol: Overall, there was a reasonable but not perfect correspondence between SDS-PAGE and ThT data.
To determine the amount of soluble α-syn, fibrillated samples were centrifuged (13,000 rpm, 15 min) and the supernatants were loaded on Bis–Tris 15% acrylamide gel with prestained protein ladder (Thermo Scientific) and run in a Bis–Tris running buffer at 150 V for 70 min, stained for 20 min in Coomassie brilliant blue (1.2 mM Coomassie brilliant blue, 5% ethanol, and 7% acetic acid), and destained overnight in a destaining solution (5% ethanol and 5% acetic acid). Gel bands were quantified using ImageJ.

[2] = molecular target: T1, α-syn; assay: ATR–FTIR of fibrillated α-syn–peptide samples; assay type: biochemical; details: for ATR–FTIR (amyloid structures): fibrillated samples after washing, versus α-syn alone; for Amount of amyloid structures (ATR–FTIR), in words: fibrillated α-syn samples in the presence of peptides
Source text: (§1) To analyze the secondary structure of the final aggregates, we recorded far-UV CD and attenuated total reflectance (ATR)–FTIR spectra for fibrillated samples after washing to remove free α-syn and peptides. […] Overall, as the concentration of peptides increases, the intensity of signal at 218 nm decreases (Fig. 4A). We observed that α-syn fibrils formed in the presence of p194, p222, p235, and p249 precipitated rapidly after mixing with these peptides. This likely gives rise to light scattering, which reduces CD signals. To overcome these artifacts, we turned to ATR–FTIR spectroscopy, which is not sensitive to scattering. […] Both far-UV CD and ATR–FTIR spectroscopy confirm extensive β-sheet structure. However, in the presence of peptides, some structural changes were observed as reflected by the decrease in the amyloid cross β-sheet structure at ∼1629 cm^−1 and increases in the random and coil structures (∼1656 and ∼1676 cm^−1, respectively) (Table 2). […] Taking all together, ATR–FTIR data are in reasonable agreement with far-UV CD.
The samples prepared in the CD section were also used to measure FTIR spectra on a Tensor 27 FTIR spectrophotometer (Bruker). About 2 μl α-syn fibrils were dried on the ATR crystal with a gentle stream of nitrogen gas. Spectra were accumulations of 68 scans in the 4000 to 1000 cm^−1 range. Baseline correlation, second derivative, and atmospheric compensation were performed with OPUS 5.5 software (Bruker, Germany). Signals in the amide I region (∼1550–1700 cm^−1) were smoothed and deconvoluted with PeakFit, version 4.12 software (ِSystat Software Inc) using Lorentzian fitting.

[3] = molecular target: T1, α-syn; assay: Far-UV CD of fibrillated α-syn–peptide samples; assay type: biochemical; details: fibrillated samples after washing, signal at 218 nm; versus α-syn alone
Source text: as §1
To remove free α-syn and peptides, fibrillated samples were centrifuged (13,000 rpm, 15 min). This leaves monomeric α-syn plus unbound and free peptides in the supernatant. The supernatant was discarded, and the pellet was washed two times in the same volume of PBS buffer, pH 7.4, to ensure complete removal of monomeric α-syn and free peptides. Far-UV CD spectra were recorded at 25 °C on a Chirascan CD Spectrophotometer (Applied Photophysics) using a 0.1 mm quartz cuvette in the wavelength range of 200 to 260 nm with 1 nm bandwidth and three accumulations. The buffer spectrum was subtracted, and the results were expressed as mean residue ellipticity [θ] (deg cm^2 dmol^−1).

[4] = molecular target: T1, α-syn; assay: TEM of α-syn aggregates formed with peptides; assay type: biochemical; details: for Morphology (TEM): α-syn aggregates after incubation with peptide, versus α-syn alone; for Morphology of α-syn aggregates (TEM), in words: α-syn incubated in the presence of peptide
Protocol: Five microliters of each fibril-containing solution were applied to 400-mesh carbon-coated and glow-discharged nickel grids for 30 s, and blotted with filter paper to remove excess sample. The grids were washed with one drop of double distilled water and then stained with 3 μl of 1% uranyl formate for 15 s. Excess stain was removed by blotting paper This step was repeated two more times. Finally, the grids were left to air dry and viewed on a Tecnai G2 Spirit (FEI Company) operating at 60 kV, and images were taken using a TemCam F416 camera (TVIPS).

[5] = Calcein release assay, substance alone; details: for Peptide concentration from which membrane toxicity is shown: peptide alone, calcein-filled DOPG LUVs, tested range 10^−1–10^−6 mg/ml
Protocol: αSOs show cytotoxic properties, which have been attributed to their membrane-disrupting ability ([69]). To examine the effect of peptides on membrane permeabilization by αSOs, we used a simple calcein release assay. αSOs, peptides, and aSO–peptide mixtures at 10^−6 to 10^−1 mg/ml peptide were added to calcein-loaded DOPG vesicle, and the extent of calcein release was monitored for 30 min by the increase in fluorescence as calcein leaks out upon membrane permeabilization, leading to dilution and the loss of self-quenching. The time-dependent calcein release data from DOPG vesicles ([70], [71]) in the presence of peptides, αSOs, and αSO–peptides are shown in Figs. S9 and S10. In order to allow easy comparison of all peptides, the calcein release versus concentration (peptides and αSOs) were plotted at the plateau point of release (Fig. 5, A–C). […] Figure 5D compares calcein release percentages of data represented in Figure 5, A and B at peptide concentrations between 0.001 and 0.1 mg/ml, where we see the largest extent of calcein release in general.
Calcein-filled vesicles of DOPG were prepared as described before ([38]). Briefly, DOPG was dissolved in PBS to […], in the presence of calcein at self-quenching concentrations (70 mM) and subjected to 10 freeze–thaw cycles between liquid nitrogen and a 50 °C water bath. After 21 times extrusion through a 100 nm filter, free calcein was separated from vesicles with a PD-10 desalting column (GE Healthcare). Vesicles were stored at 4 °C and used for calcein release assays within 24 h.
Calcein release was measured by mixing peptides and/or αSOs at a final concentration of 10^−6 to 10^−1 mg/ml and 5.2 μg/ml, respectively, in 148 μl with 2 μl of calcein vesicles, and were then loaded onto a 96-well plate (Nunc, Thermo Fischer Scientific) in triplicate. The plate was sealed with Crystal clear sealing tape (Hampton Research), and fluorescence was measured (excitation: 485 nm and emission: 520 nm) for 1 h at 37 °C every 2 min with a 2 s autoshake before each reading on a fluorescence plate reader (Tecan). Finally, 2 μl Triton X-100 (0.2% [v/v]) was added to lyse vesicles, and the maximal fluorescence signal was measured for 20 min under the same reading condition. Background fluorescence was subtracted, and the average signal of calcein release before addition of Triton X-100 (F), after treatment with Triton X-100 (Ft) and for the buffer control (F0) were determined, and calcein release percentage was calculated as follow (Equation 1):(1) CalceinRelease%(CR%)=(F−F0)/(Ft−F0)

Compound | Amount of soluble α-syn monomer left in the supernatant, in words [1] | Soluble α-syn left in supernatant (SDS-PAGE gel) [1] | ATR–FTIR (amyloid structures) [2] | Amount of amyloid structures (ATR–FTIR), in words [2] | Far-UV CD (β-sheet structures) [3] | Morphology (TEM) [4] | Morphology of α-syn aggregates (TEM), in words [4] | Peptide concentration from which membrane toxicity is shown [5] | Permeabilization of lipid vesicles by peptide alone ([5]; calcein-loaded DOPG vesicles, 10^−6 to 10^−1 mg/ml peptide, 37 °C, triplicate)
RQIKIWFQNRRFKWKK [p222, penetratin with modulated hydrophobicity] | decrease solubility | ↓↓ | ↓↓ amyl | decreased | ↓↓↓β | S, N | needle-shaped and short fibrils | > 10^−4 mg/ml | –
CC(C)C[C@H](NC(=O)[C@H](Cc1c[nH]cn1)NC(=O)[C@H](CO)NC(=O)[C@H](CO)NC(=O)[C@H](C)NC(=O)[C@@H](N)CO)C(=O)N[C@@H](Cc1c[nH]cn1)C(=O)N[C@@H](Cc1c[nH]cn1)C(=O)NCC(=O)N[C@@H](Cc1c[nH]cn1)C(=O)N[C@@H](CO)C(=O)NCC(=O)NCC(=O)O [p168] (H-SASSHLHHGHSGG-OH) | decrease solubility | – | – | did not show significant changes in FTIR spectra | ↓↓β | L, T, I | longer and thinner fibrils | – | did not permeabilize lipid vesicles
CC[C@H](C)[C@H](NC(=O)[C@H](Cc1ccccc1)NC(=O)[C@H](Cc1c[nH]c2ccccc12)NC(=O)[C@H](CCCNC(=N)N)NC(=O)[C@H](CC(N)=O)NC(=O)[C@@H](NC(=O)[C@H](CCC(N)=O)NC(=O)[C@H](CCCCN)NC(=O)[C@@H](N)CCSC)[C@@H](C)CC)C(=O)N[C@@H](CCCNC(=N)N)C(=O)N[C@@H](Cc1c[nH]c2ccccc12)C(=O)N[C@@H](CCC(N)=O)C(=O)N[C@@H](CCCCN)C(=O)N[C@@H](CCCCN)C(=O)N[C@@H](CCCNC(=N)N)C(=O)N[C@@H](CCCCN)C(=O)O [p249] (H-MKQINRWFIRWQKKRK-OH; N-terminus and C-terminus assumed) | decrease solubility | ↓↓ | ↓↓↓ amyl | decreased | ↓↓↓β | – | nonfibrillar (amorphous) accumulations | > 10^−2 mg/ml | –
CC[C@H](C)[C@H](NC(=O)[C@H](Cc1c[nH]c2ccccc12)NC(=O)[C@H](CCCNC(=N)N)NC(=O)[C@H](Cc1c[nH]c2ccccc12)NC(=O)[C@H](CCCCN)NC(=O)[C@@H](NC(=O)[C@H](CCCCN)NC(=O)[C@H](CCC(N)=O)NC(=O)[C@@H](N)CC(N)=O)[C@@H](C)CC)C(=O)N[C@@H](CCC(N)=O)C(=O)N[C@@H](CCCNC(=N)N)C(=O)N[C@@H](Cc1ccccc1)C(=O)N[C@@H](CCCNC(=N)N)C(=O)N[C@@H](CCCCN)C(=O)N[C@@H](CCCCN)C(=O)N[C@@H](CCSC)C(=O)O [p235] (H-NQKIKWRWIQRFRKKM-OH; N-terminus and C-terminus assumed) | – | – | ↓↓↓ amyl | decreased | ↓↓↓β | – | nonfibrillar (amorphous) accumulations | > 10^−2 mg/ml | –
